Data taken from patent publication US9371336B2, “Compounds for treating spinal muscular atrophy” (PTC Therapeutics Inc., priority 2012, dated 2016).

Assays:
[1] = system: SMN2 minigene mRNA (SMN2-A minigene construct); test: SMN2 minigene mRNA splicing RT-qPCR assay in cultured cells; format: cell-based, human; conditions: Homo sapiens, HEK293-H; HEK293H cells stably transfected with SMN2-A minigene, 24 hours, 7-point concentration data; concentration giving 1.5-fold SMN2 full length mRNA relative to vehicle-treated cells; read-out: EC1.5x for production of full length SMN2 mRNA
Outline: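 Full-length SMN2 minigene mRNA, measured by exon 7/luciferase-specific RT-qPCR that excludes endogenous SMN1/SMN2, was normalized to GAPDH and expressed relative to vehicle-treated cells via modified ΔΔCt. Stably transfected HEK293H cells received compound (7-point, 3.16-fold series, duplicates) for 24 h at 37 °C.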

[2] = system: Smn protein; test: Smn protein assay (HTRF) in cultured cells (SMA patient fibroblasts GM03813); format: cell-based, human; conditions: 48 hours; for EC1.5x for Smn protein expression: SMA patient fibroblast cells (GM03813), HTRF, 7-point concentration data, concentration producing 1.5 times Smn protein vs DMSO vehicle control; for maximum fold (Fold) increase of Smn protein: SMA patient fibroblast cells, 7-point concentration curve, relative to vehicle control
Outline: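 SMA patient fibroblasts (GM03813) were treated 48 h at 37° C with a 7-point, 3.16-fold compound series in triplicate, then lysed in RIPA. Smn was read by HTRF (anti-SMN d2/kryptate, 665/620 nm ratio). ΔF versus blank was divided by vehicle ΔF to give fold Smn increase.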

Structure (SMILES)	EC (1.5-fold) [1]	EC1.5x for Smn protein expression [2]	maximum fold (Fold) increase of Smn protein [2]	melting point
CN1CCCN(c2ccc3cc(-c4nc5c(Cl)cccc5s4)c(=O)oc3n2)CC1 [Cpd 37, 3-(4-chloro-1,3-benzothiazol-2-yl)-7-(4-methyl-1,4-diazepan-1-yl)-2H-pyrano[2,3-b]pyridin-2-one]	≤ 0.1 µM	** (an EC1.5× between >1 and ≦3 μM is indicated by two stars (**))	*** (a fold increase between >1.35 and ≦1.5 is indicated by three stars (***))	263 to 265 °C
CN1CCN(c2ccc3cc(-c4cn5ccccc5n4)c(=O)oc3n2)CC1 [Cpd 38, 3-(imidazo[1,2-a]pyridin-2-yl)-7-(4-methylpiperazin-1-yl)-2H-pyrano[2,3-b]pyridin-2-one]	0.1 to 0.3 µM	*** (an EC1.5× between >0.3 μM and ≦1 μM is indicated by three stars (***))	***** (a fold increase >1.65 is indicated by five stars (*****))	243 to 246 °C
Cc1ccn2cc(-c3cc4ccc(N5CCN(C)CC5)nc4oc3=O)nc2c1 [Cpd 39, 3-(7-methylimidazo[1,2-a]pyridin-2-yl)-7-(4-methylpiperazin-1-yl)-2H-pyrano[2,3-b]pyridin-2-one]	≤ 0.1 µM	**** (an EC1.5×≦0.3 μM is indicated by four stars (****))	**** (a fold increase between >1.5 and ≦1.65 is indicated by four stars (****))	264 to 268 °C
Cl.O=c1oc2cc(N3CCNCC3)ncc2cc1-c1cn2ccccc2n1 [Cpd 42, 3-(imidazo[1,2-a]pyridin-2-yl)-7-(piperazin-1-yl)-2H-pyrano[3,2-c]pyridin-2-one hydrochloride]	3 to 30 µM	–	** (a fold increase between >1.2 and ≦1.35 is indicated by two stars (**))	278 to 284 °C
Cl.O=c1oc2nc(N3CCCNCC3)ccc2cc1-c1cn2ccccc2n1 [Cpd 45, 7-(1,4-diazepan-1-yl)-3-(imidazo[1,2-a]pyridin-2-yl)-2H-pyrano[2,3-b]pyridin-2-one hydrochloride]	0.1 to 0.3 µM	*** (an EC1.5× between >0.3 μM and ≦1 μM is indicated by three stars (***))	**** (a fold increase between >1.5 and ≦1.65 is indicated by four stars (****))	265 to 267 °C
Cl.O=c1oc2nc(N3CCCNCC3)ccc2cc1-c1cn2cccc(F)c2n1 [Cpd 46, 7-(1,4-diazepan-1-yl)-3-(8-fluoroimidazo[1,2-a]pyridin-2-yl)-2H-pyrano[2,3-b]pyridin-2-one hydrochloride]	≤ 0.1 µM	**** (an EC1.5×≦0.3 μM is indicated by four stars (****))	**** (a fold increase between >1.5 and ≦1.65 is indicated by four stars (****))	267 to 269 °C
Cl.O=c1oc2nc(N3CCCNCC3)ccc2cc1-c1cn2cccc(Cl)c2n1 [Cpd 47, 3-(8-chloroimidazo[1,2-a]pyridin-2-yl)-7-(1,4-diazepan-1-yl)-2H-pyrano[2,3-b]pyridin-2-one hydrochloride]	≤ 0.1 µM	**** (an EC1.5×≦0.3 μM is indicated by four stars (****))	***** (a fold increase >1.65 is indicated by five stars (*****))	252 to 255 °C
CN1CCCN(c2ccc3cc(-c4cn5ccccc5n4)c(=O)oc3n2)CC1 [Cpd 48, 3-(imidazo[1,2-a]pyridin-2-yl)-7-(4-methyl-1,4-diazepan-1-yl)-2H-pyrano[2,3-b]pyridin-2-one]	0.1 to 0.3 µM	*** (an EC1.5× between >0.3 μM and ≦1 μM is indicated by three stars (***))	**** (a fold increase between >1.5 and ≦1.65 is indicated by four stars (****))	271 to 274 °C
CN1CCCN(c2ccc3cc(-c4cn5cccc(F)c5n4)c(=O)oc3n2)CC1 [Cpd 49, 3-(8-fluoroimidazo[1,2-a]pyridin-2-yl)-7-(4-methyl-1,4-diazepan-1-yl)-2H-pyrano[2,3-b]pyridin-2-one]	≤ 0.1 µM	*** (an EC1.5× between >0.3 μM and ≦1 μM is indicated by three stars (***))	**** (a fold increase between >1.5 and ≦1.65 is indicated by four stars (****))	269 to 272 °C
CN1CCCN(c2ccc3cc(-c4cn5cccc(Cl)c5n4)c(=O)oc3n2)CC1 [Cpd 50, 3-(8-chloroimidazo[1,2-a]pyridin-2-yl)-7-(4-methyl-1,4-diazepan-1-yl)-2H-pyrano[2,3-b]pyridin-2-one]	≤ 0.1 µM	**** (an EC1.5×≦0.3 μM is indicated by four stars (****))	***** (a fold increase >1.65 is indicated by five stars (*****))	245 to 246 °C
Cl.O=c1oc2nc(N3CCCNCC3)ccc2cc1-c1nc2ccccc2s1 [Cpd 51, 3-(1,3-benzothiazol-2-yl)-7-(1,4-diazepan-1-yl)-2H-pyrano[2,3-b]pyridin-2-one hydrochloride]	0.3 to 1 µM	–	** (a fold increase between >1.2 and ≦1.35 is indicated by two stars (**))	284 to 286 °C
Cl.O=c1oc2nc(N3CCCNCC3)ccc2cc1-c1nc2ccccc2o1 [Cpd 52, 3-(1,3-benzoxazol-2-yl)-7-(1,4-diazepan-1-yl)-2H-pyrano[2,3-b]pyridin-2-one hydrochloride]	3 to 30 µM	–	* (A maximum fold increase ≦1.2 is indicated by one star (*))	243 to 245 °C
Cc1ccn2nc(-c3cc4ccc(N5CCN(C)CC5)nc4oc3=O)cc2c1 [Cpd 53, 7-(4-methylpiperazin-1-yl)-3-(5-methylpyrazolo[1,5-a]pyridin-2-yl)-2H-pyrano[2,3-b]pyridin-2-one]	0.1 to 0.3 µM	–	*** (a fold increase between >1.35 and ≦1.5 is indicated by three stars (***))	264 to 268 °C
CN1CCN(c2ccc3cc(-c4cn5ccsc5n4)c(=O)oc3n2)CC1 [Cpd 54, 3-(imidazo[2,1-b][1,3]thiazol-6-yl)-7-(4-methylpiperazin-1-yl)-2H-pyrano[2,3-b]pyridin-2-one]	0.1 to 0.3 µM	*** (an EC1.5× between >0.3 μM and ≦1 μM is indicated by three stars (***))	**** (a fold increase between >1.5 and ≦1.65 is indicated by four stars (****))	268 to 272 °C
Cc1cn2cc(-c3cc4cnc(N5CCN(C)CC5)cc4oc3=O)nc2s1 [Cpd 55, 3-(2-methylimidazo[2,1-b][1,3]thiazol-6-yl)-7-(4-methylpiperazin-1-yl)-2H-pyrano[3,2-c]pyridin-2-one]	1 to 3 µM	** (an EC1.5× between >1 and ≦3 μM is indicated by two stars (**))	*** (a fold increase between >1.35 and ≦1.5 is indicated by three stars (***))	282 to 286 °C
CN1CCCN(c2ccc3cc(-c4nc5ccccc5s4)c(=O)oc3n2)CC1 [Cpd 56, 3-(1,3-benzothiazol-2-yl)-7-(4-methyl-1,4-diazepan-1-yl)-2H-pyrano[2,3-b]pyridin-2-one]	0.1 to 0.3 µM	* (An EC1.5× for Smn protein expression between >3 μM and ≦10 μM is indicated by one star (*))	** (a fold increase between >1.2 and ≦1.35 is indicated by two stars (**))	274 to 276 °C
C[C@@H]1CN(c2ccc3cc(-c4cn5ccccc5n4)c(=O)oc3n2)C[C@H](C)N1 [Cpd 60, 7-[(3R,5S)-3,5-dimethylpiperazin-1-yl]-3-(imidazo[1,2-a]pyridin-2-yl)-2H-pyrano[2,3-b]pyridin-2-one]	≤ 0.1 µM	** (an EC1.5× between >1 and ≦3 μM is indicated by two stars (**))	*** (a fold increase between >1.35 and ≦1.5 is indicated by three stars (***))	283 to 285 °C
Cc1ccn2cc(-c3cc4ccc(N5CCN(C)[C@@H](C)C5)nc4oc3=O)nc2c1 [Cpd 61, 7-[(3S)-3,4-dimethylpiperazin-1-yl]-3-(7-methylimidazo[1,2-a]pyridin-2-yl)-2H-pyrano[2,3-b]pyridin-2-one]	≤ 0.1 µM	**** (an EC1.5×≦0.3 μM is indicated by four stars (****))	**** (a fold increase between >1.5 and ≦1.65 is indicated by four stars (****))	246 to 250 °C
Cc1ccn2cc(-c3cc4ccc(N5CCN(C)C[C@@H]5C)nc4oc3=O)nc2c1 [Cpd 62, 7-[(2S)-2,4-dimethylpiperazin-1-yl]-3-(7-methylimidazo[1,2-a]pyridin-2-yl)-2H-pyrano[2,3-b]pyridin-2-one]	≤ 0.1 µM	**** (an EC1.5×≦0.3 μM is indicated by four stars (****))	**** (a fold increase between >1.5 and ≦1.65 is indicated by four stars (****))	242 to 246 °C
